Source: patent US7390834B2, “Cyanophenoxy carboxylic acid compounds and compositions for delivering active agents” (Emisphere Technologies, Inc., priority 2000, dated 2008)

Key:
[1] = Oral and intracolonic delivery of heparin in rats (APTT); type: in vivo, Sprague-Dawley rats; conditions: Heparin Dose 1 mg/kg, maximum of group means, n=5
Description: Oral gavage (PO) and intracolonic (IC) dosing solutions containing a delivery agent compound and heparin sodium USP in 25% aqueous propylene glycol were prepared. Either the sodium salt of the delivery agent compound was used or the free acid was converted to the sodium salt with one equivalent of sodium hydroxide. Typically, the delivery agent compound and heparin (about 166-182 IU/mg) were mixed by vortex as dry powders. This dry mixture was dissolved in 25% v/v aqueous propylene glycol, vortexed and placed in a sonicator (about 37° C.). The pH was adjusted to about 7 (6.5 to 8.5) with aqueous NaOH (2N). The dosing solution was sonicated to produce a clear solution. The final volume was adjusted to 3.0 mL. The final delivery agent compound dose, heparin dose and volume dose amounts are listed below in Table 2.
The typical dosing and sampling protocols were as follows. Male Sprague-Dawley rats weighing between 275-350 g were fasted for 24 hours and were anesthetized with ketamine hydrochloride (88 mg/kg) intramuscularly immediately prior to dosing. A dosing group of five rats was administered one of the dosing solutions. For oral gavage (PO) dosing, an 11 cm Rusch 8 French catheter was adapted to a 1 mL syringe with a pipette tip. The syringe was filled with dosing solution by drawing the solution through the catheter, which was then wiped dry. The catheter was placed down the esophagus leaving 1 cm of tubing past the rat's incisors. Solution was administered by pressing the syringe plunger. For intracolonic (IC) dosing, a 7.5 cm 8 fr Rusch catheter was adapted to a 1 ml syringe with a pipette tip. The dosing catheter was inserted into the colon through the anus until the tube was no longer visible. The dosing solution was expressed slowly into the colon.
Citrated blood samples were collected by cardiac puncture following the administration of ketamine (88 mg/kg), typically at time—0.25, 0.5, 1.0 and 1.5 hours. Heparin activity was determined by utilizing the activated partial thromboplastin time (APTT) according to the method of Henry, J. B., Clinical Diagnosis and Management by Laboratory Methods, Philadelphia, Pa., W. B. Saunders (1979). Previous studied indicated baseline values of about 20 sec. Results from the five rats in each group were averaged for each time point. The maximum is reported below in Table 2.

[2] = Oral, as printed: Volume Dose 300 ml/kg, Compound Dose 100 mg/kg

| Structure (SMILES) | melting point [°C] | Mean Peak APTT (sec) ± SD ([1]; IC, as printed: Volume Dose 200 ml/kg, Compound Dose 25 mg/kg) [s] | Mean Peak APTT (sec) ± SD [1, 2] [s] | Mean Peak APTT (sec) ± SD ([1]; IC, as printed: Volume Dose 50 ml/kg, Compound Dose 25 mg/kg) [s] |
| --- | --- | --- | --- | --- |
| N#Cc1cc(Cl)ccc1OCCCCC(=O)O [Compound 7, 5-(4-chloro-2-cyanophenoxy)pentanoic acid] | 87 to 90 | – | – | – |
| N#Cc1ccccc1OCCCCC(=O)O [Compound 3, 5-(2-cyanophenoxy) pentanoic acid] | 87 to 89 | 16.23 ± 1.23 | 203.59 ± 72.97 | – |
| N#Cc1ccccc1OCCCC(=O)O [Compound 2, 4-(2-cyanophenoxy)butanoic acid] | 127 to 128 | – | – | – |
| N#Cc1ccccc1OCc1ccc(C(=O)O)cc1 [Compound 9, 4-(2-cyanophenoxymethyl)benzoic acid] | 199 to 203 | – | – | – |
| N#Cc1ccccc1OCCCCCC(=O)O (hydrate or solvate) [Compound 4, 6-(2-cyanophenoxy)hexanoic acid] | 77 to 80 | – | – | – |
| N#Cc1ccccc1OCCCCCCCCCC(=O)O [Compound 6, 10-(2-cyanophenoxy)decanoic acid] | 82 to 84 | – | – | – |
| N#Cc1ccc(OCCCCCCCC(=O)O)cc1 [Compound 8, 8-(4-cyanophenoxy)octanoic acid] | 137 to 140 | – | – | – |
| N#Cc1ccccc1OCCCCCCCC(=O)O [Compound 5, 8-(2-cyanophenoxy) octanoic acid] | 83 to 85 | – | 176.25 ± 175.01 | 80.22 ± 45.70 |
